The record followed here is patent US20260001889A1, “COMPOSITIONS USEFUL FOR MODULATING SPLICING” (Skyhawk Therapeutics, Inc., priority 2022, published 2026).

The subject of one experiment is ATXN3-HiBiT protein. Briefly: ATXN3 Total Protein Assay (Kelly-ATXN3-HiBiT luminescence). In kind it is cell-based. To be noted: Kelly-ATXN3-HiBiT cells, 48 h after addition of compound. The procedure, abridged: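 Kelly cells with homozygous C-terminal HiBiT knock-in on endogenous ATXN3, 2000 per well, dosed 24 h after seeding. HiBiT lytic luminescence read 48 h after compound; sister plate read with CellTiter-Glo for viability; fold change vs DMSO.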
For orientation: With HiBiT, luminescence reflects the tagged protein that the partner subunit can reach.

Another experiment has as its system total ATXN3 protein. Briefly: ATXN3 Total Protein Assay (Mesoscale Discovery, SK-N-MC cells). In kind it is cell-based, Human. To be noted: incubation for 48 hours, MSD assay. The method in brief:
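Human SK-N-MC neuroblastoma cells treated with compound at 30 μM to 0.6 nM for 48 h, then lysed with protease inhibitors. Total ATXN3 quantified by MSD sandwich immunoassay (mouse capture, rabbit detect antibodies, anti-rabbit MSD-ST secondary) against recombinant ATXN3 standards.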

Experiment [1] concerns ATXN3 transcripts containing exon 4. Briefly: ATXN3 Quantitative Splicing Assay (qPCR, E4E5 primers/probe). In kind it is cell-based. Particulars: Homo sapiens, SK-N-MC cells, compounds for 24 h. The method in brief: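 SK-N-MC human neuroblastoma cells treated 24 h with compound from 30 μM to 0.6 nM, 24 h after plating. Lysate cDNA was run in TaqMan qPCR, with primers/probe E4E5 detecting exon 4-containing ATXN3 transcripts and E8E9 measuring total ATXN3.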
(In general: Quantitative PCR measures a nucleic acid by following its amplification.)

As to `N[C@@H](Cc1oc2c(NCc3cccs3)cc(Cl)nc2c1Br)[C@@H]1CCOC1` (single isomer, unassigned) [Compound 214], the EC50 (in general, the concentration needed to bring the measured effect to its halfway point) in the experiment on ATXN3-HiBiT protein fell in the range of 501 to 5000 nM. The IC50 (in the experiment with total ATXN3 protein; in experiment [1]) was 501 to 5000 nM each time.

Molecule `N[C@@H](CCOC(F)F)Cc1oc2c(NCc3cccs3)cc(Cl)nc2c1Br` [Compound 154, (S)-2-(2-amino-4-(difluoromethoxy)butyl)-3-bromo-5-chloro-N-(thiophen-2-ylmethyl)furo[3,2-b]pyridin-7-amine] showed an EC50 in the experiment with ATXN3-HiBiT protein of 0.01 to 100 nM. For the same molecule, the IC50 (with total ATXN3 protein; in experiment [1]) was 0.01 to 100 nM throughout.

As to `C[C@H](N)Cc1oc2c(NCc3ccco3)cc(C#N)nc2c1Br` [Compound 36, 2-[(S)-2-aminopropyl]-3-bromo-7-(furfurylamino)-1-oxa-4-aza-5-indenecarbonitrile], the EC50 in the experiment on ATXN3-HiBiT protein was 501 to 5000 nM. Further, the IC50 (in the experiment on total ATXN3 protein; in experiment [1]) was 501 to 5000 nM in each case.

The molecule `C[C@H](F)[C@H](N)Cc1oc2c(NCc3cccs3)cc(Cl)nc2c1Cl` [Compound 148, 2-[(2R,3S)-2-amino-3-fluorobutyl]-3,5-dichloro-7-thenylamino-1-oxa-4-azaindene] came in with an EC50 with ATXN3-HiBiT protein of 0.01 to 100 nM. For the same molecule, the IC50 (in the experiment with total ATXN3 protein; in experiment [1]) was 0.01 to 100 nM in each case.

In the experiment on ATXN3-HiBiT protein, `C#Cc1cc(NCc2ccco2)c2oc(C[C@H](C)N)c(Br)c2n1` [Compound 112, 2-[(S)-2-aminopropyl]-3-bromo-5-ethynyl-7-(furfurylamino)-1-oxa-4-azaindene] came in with an EC50 of 0.01 to 100 nM. Also, the IC50 (in the experiment on total ATXN3 protein; in experiment [1]) was 101 to 500 nM each time.

In the case of `C[C@H](N)Cc1oc2c(NCc3cccs3)cc(Cl)nc2c1-c1cscn1` [Compound 263, 2-[(S)-2-aminopropyl]-5-chloro-7-thenylamino-3-(1,3-thiazol-4-yl)-1-oxa-4-azaindene], the EC50 in the experiment with ATXN3-HiBiT protein is 501 to 5000 nM. Moreover, the IC50 (in the experiment with total ATXN3 protein; in experiment [1]) was 501 to 5000 nM throughout.

As for `C[C@H](F)[C@H](N)Cc1oc2c(NCc3cccs3)cc(Cl)nc2c1Br` [Compound 43, 2-[(2R,3S)-2-amino-3-fluorobutyl]-3-bromo-5-chloro-N-(thiophen-2-ylmethyl)furo[3,2-b]pyridin-7-amine], the EC50 in the experiment with ATXN3-HiBiT protein lay within 0.01 to 100 nM. For the same molecule, the IC50 (in the experiment on total ATXN3 protein; in experiment [1]) was 0.01 to 100 nM in each case.

In the case of `CC[C@H](N)Cc1oc2c(NCc3cccs3)cc(Cl)nc2c1C` [Compound 13, 2-[(S)-2-aminobutyl]-5-chloro-3-methyl-7-thenylamino-1-oxa-4-azaindene], the concentration for a half-maximal effect (EC50) in the experiment with ATXN3-HiBiT protein was in the range of 101 to 500 nM. Moreover, the IC50 (in the experiment with total ATXN3 protein; in experiment [1]) was 101 to 500 nM throughout.

Turning to `C#CC[C@H](N)Cc1oc2c(NCc3cccs3)cc(Cl)nc2c1Br` [Compound 77, 2-[(S)-2-amino-4-pentynyl]-3-bromo-5-chloro-7-thenylamino-1-oxa-4-azaindene], the EC50 with ATXN3-HiBiT protein fell in the range of 0.01 to 100 nM. For the same molecule, the IC50 (in the experiment with total ATXN3 protein; in experiment [1]) was 0.01 to 100 nM throughout.

With `Cc1c(C[C@@H](N)[C@H](C)F)oc2c(NCc3ccccc3)cc(Cl)nc12` [Compound 107, 2-[(2R,3S)-2-amino-3-fluorobutyl]-7-benzylamino-5-chloro-3-methyl-1-oxa-4-azaindene], the EC50 in the experiment on ATXN3-HiBiT protein was 101 to 500 nM. For the same molecule, the IC50 (as a rule, the concentration that gives 50% inhibition) with total ATXN3 protein lay within 501 to 5000 nM; in experiment [1] it was 101 to 500 nM.

In the experiment with ATXN3-HiBiT protein, `C#Cc1cc(NCc2cccs2)c2oc(C[C@@H](N)C3CC(F)(F)C3)c(C#C)c2n1` [Compound 178, 2-[(R)-2-amino-2-(3,3-difluorocyclobutyl)ethyl]-3,5-diethynyl-7-thenylamino-1-oxa-4-azaindene] returned an EC50 of 501 to 5000 nM. Besides, the IC50 (in the experiment on total ATXN3 protein; in experiment [1]) was 501 to 5000 nM in each case.

Turning to `C#Cc1cc(NCc2cccs2)c2oc(C[C@@H](N)C3CC3)c(C#C)c2n1` [Compound 181, 2-[(R)-2-amino-2-cyclopropylethyl]-3,5-diethynyl-7-thenylamino-1-oxa-4-azaindene], the EC50 in the experiment on ATXN3-HiBiT protein lay within 501 to 5000 nM. The IC50 (in the experiment on total ATXN3 protein; in experiment [1]) was 501 to 5000 nM each time.
